Reference: patent publication US20240158446A1, “CYCLIC COMPOUND HAVING SELECTIVE INHIBITORY ACTION ON KRAS OVER HRAS AND NRAS” (CHUGAI SEIYAKU KABUSHIKI KAISHA, priority 2021, published 2024)
pIC50, pKd: −log10 of the molar value. Like-named read-outs stand apart in the source and are kept apart here.

Assays:
[1] = system: human lung cancer strain NCI-H441;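 further: cell proliferation inhibition after four days measured by CellTiter-Glo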
[2] = molecular target: GDP-bound HRAS wild-type protein (Homo sapiens, UniProt P01112); assay: Binding to HRAS by surface plasmon resonance (SPR), Single Cycle Kinetics; settings: for HRAS/KRAS (ratio of KD value with respect to GDP-bound HRAS wild-type protein to KD value with respect to KRAS): SPR KD ratio HRAS/KRAS, class symbols; for HRAS/KRAS (ratio of KD value for HRAS to KD value for KRAS): GDP-bound HRAS wild-type protein vs GDP-bound KRAS wild-type protein
GDP-bound HRAS wild-type protein, sequence (P01112 whole entry): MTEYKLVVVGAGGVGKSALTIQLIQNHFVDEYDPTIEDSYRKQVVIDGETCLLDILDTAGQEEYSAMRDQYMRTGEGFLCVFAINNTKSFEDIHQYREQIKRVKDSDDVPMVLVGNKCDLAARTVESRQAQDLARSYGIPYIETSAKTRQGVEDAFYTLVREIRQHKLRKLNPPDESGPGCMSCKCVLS

[3] = molecular target: GDP-bound KRAS wild-type protein (Homo sapiens, UniProt P01116); assay: Binding to KRAS by surface plasmon resonance (SPR), Single Cycle Kinetics; settings: GDP-bound KRAS wild-type protein, read-out: KRAS KD
GDP-bound KRAS wild-type protein, sequence (P01116 whole entry): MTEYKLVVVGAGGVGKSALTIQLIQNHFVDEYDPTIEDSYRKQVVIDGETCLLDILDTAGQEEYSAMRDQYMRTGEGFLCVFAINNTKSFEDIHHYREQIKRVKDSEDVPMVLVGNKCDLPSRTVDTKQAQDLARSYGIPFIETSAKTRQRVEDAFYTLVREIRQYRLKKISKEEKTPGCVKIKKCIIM

[4] = molecular target: GDP-bound NRAS wild-type protein (Homo sapiens, UniProt P01111); assay: Binding to NRAS by surface plasmon resonance (SPR), Single Cycle Kinetics; settings: for NRAS/KRAS (ratio of KD value with respect to GDP-bound NRAS wild-type protein to KD value with respect to KRAS): SPR KD ratio NRAS/KRAS, class symbols; for NRAS/KRAS (ratio of KD value for NRAS to KD value for KRAS): GDP-bound NRAS wild-type protein vs GDP-bound KRAS wild-type protein
GDP-bound NRAS wild-type protein, sequence (P01111 whole entry): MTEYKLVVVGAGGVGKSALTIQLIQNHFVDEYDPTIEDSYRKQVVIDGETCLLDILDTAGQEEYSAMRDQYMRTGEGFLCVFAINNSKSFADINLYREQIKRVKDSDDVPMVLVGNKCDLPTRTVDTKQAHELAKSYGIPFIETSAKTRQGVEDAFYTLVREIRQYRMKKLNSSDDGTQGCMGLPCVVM

[5] = SPR Single Cycle Kinetics, 1:1 binding model
[6] = SPR, Single Cycle Kinetics, 1:1 binding model

SMILES	pIC50 [1]	HRAS/KRAS (ratio of KD value for HRAS to KD value for KRAS) ([2]; SPR)	pKd ([3]; SPR, Single Cycle Kinetics)	NRAS/KRAS (ratio of KD value for NRAS to KD value for KRAS) ([4]; SPR)	further results
CC[C@H](C)[C@@H]1NC(=O)[C@H](COC)N(C)C(=O)C[C@@H](C(=O)N2CCCCC2)N(C)C(=O)[C@H](C2CCCC2)N(C)C(=O)C2(CC(C)(C)C2)NC(=O)[C@@H]2C[C@@H](OC(C)C)CN2C(=O)[C@H](CCc2cc(F)c(C(F)(F)F)c(F)c2)NC(=O)CN(C)C(=O)[C@H](Cc2ccc(C)cc2)N2CC/C=C\C[C@@H](C2=O)N(C)C(=O)CN(C)C1=O [PP2669]	7.73	–	–	–	HRAS/KRAS (ratio of KD value with respect to GDP-bound HRAS wild-type protein to KD value with respect to KRAS) [2]: A (a compound having 10 or more and less than 20 is denoted as A); pKd [3, 5]: 9.54; NRAS/KRAS (ratio of KD value with respect to GDP-bound NRAS wild-type protein to KD value with respect to KRAS) [4]: A (a compound having 10 or more and less than 20 is denoted as A)
CC[C@H](C)[C@@H]1NC(=O)[C@@H]2CCCc3ccc(cc3)C[C@@H](C(=O)N(C)CC(=O)N[C@@H](CCc3ccc(C(F)(F)F)c(OC)c3)C(=O)N3C[C@H](OC4CCCC4)C[C@H]3C(=O)NC3(CC(C)(C)C3)C(=O)N(C)[C@@H](C3CCCC3)C(=O)N(C)[C@H](C(=O)N(C)CC)CC(=O)N2C)N2CC/C=C\C[C@@H](C2=O)N(C)C(=O)CN(C)C1=O [PP3086]	–	B (a compound having 3 or more and less than 10 is denoted as B)	9.70	B (a compound having 3 or more and less than 10 is denoted as B)	pIC50 ([1]; read-out: NCI-H441 cell proliferation inhibitory activity, 50% proliferation inhibitory concentration (IC50 value), NCI-H441, four days, CellTiter-Glo): 8.10; ratio of the KD value with respect to GDP-bound HRAS wild-type protein to the KD value with respect to KRAS ([2]; SPR, KD(HRAS)/KD(KRAS)): B (a compound having 3 or more and less than 10 is denoted as B); ratio of the KD value with respect to GDP-bound NRAS wild-type protein to the KD value with respect to KRAS ([4]; SPR, KD(NRAS)/KD(KRAS)): B (a compound having 3 or more and less than 10 is denoted as B)
CCO[C@H](C)[C@@H]1NC(=O)[C@H](CC(C)C)N(C)C(=O)C[C@@H](C(=O)N(C)C)N(C)C(=O)[C@H](C2CCCC2)N(C)C(=O)C2(CC(C)(C)C2)NC(=O)[C@@H]2C[C@H](C)CN2C(=O)[C@H](CCc2ccc(C(F)(F)F)c(OC)c2)NC(=O)CN(C)C(=O)[C@H](Cc2ccc(C)cc2)N2CC/C=C\C[C@@H](C2=O)N(C)C(=O)CN(C)C1=O [PP2412]	7.68	B (a compound having 3 or more and less than 10 is denoted as B)	9.82	A (a compound having 10 or more and less than 20 is denoted as A)	–
CCO[C@@H]1C[C@H]2C(=O)NC3(CCCC3)C(=O)N(C)[C@@H](C3CCCC3)C(=O)N(C)[C@H](C(=O)N(C)C)CC(=O)N(C)[C@@H](CC3CC3)C(=O)N[C@@H]([C@@H](C)CC)C(=O)N(C)CC(=O)N(C)[C@H]3C[C@@H](C)[C@@H](C)CN(C3=O)[C@@H](Cc3ccc(C(F)(F)F)cc3)C(=O)N(C)CC(=O)N[C@@H](CCc3cc(F)c(C(F)(F)F)c(F)c3)C(=O)N2C1 [PP1356]	8.48	–	–	–	HRAS/KRAS (ratio of KD value for HRAS to KD value for KRAS) ([2]; SPR, KD ratio class): B (a compound having 3 or more and less than 10 is denoted as B); pKd [3, 6]: 10.33; NRAS/KRAS (ratio of KD value for NRAS to KD value for KRAS) ([4]; SPR, KD ratio class): B (a compound having 3 or more and less than 10 is denoted as B)
CCO[C@@H]1C[C@H]2C(=O)NC3(CCC3)C(=O)N(C)[C@@H](C3CCCC3)C(=O)N(C)[C@H](C(=O)N(C)CC)CC(=O)N(C)[C@H]3CCCC/C=C/c4ccc(cc4)C[C@@H](C(=O)N(C)CC(=O)N[C@@H](CCc4cc(F)c(C(F)(F)F)c(F)c4)C(=O)N2C1)N1CC/C=C\C[C@@H](C1=O)N(C)C(=O)CN(C)C(=O)[C@H]([C@@H](C)CC)NC3=O [PP1827, (1S,7S,11R,13S,19S,22S,26S,29S,35S,37Z,47E)-19-cyclopentyl-7-[2-[3,5-difluoro-4-(trifluoromethyl)phenyl]ethyl]-11-ethoxy-N-ethyl-N,3,18,21,25,31,34-heptamethyl-29-[(1S)-1-methylpropyl]-2,5,8,14,17,20,24,27,30,33,55-undecaoxo-spiro[3,6,9,15,18,21,25,28,31,34,41-undecazapentacyclo[24.15.11.2^43,46.1^35,41.0^9,13]pentapentaconta-37,43(54),44,46(53),47-pentaene-16,1′-cyclobutane]-22-carboxamide]	8.62	–	10.54	–	HRAS/KRAS (KD ratio) ([2]; ratio of KD for GDP-bound HRAS wild-type protein to KD for KRAS, SPR): A (a compound having 10 or more and less than 20 is denoted as A); NRAS/KRAS (KD ratio) ([4]; ratio of KD for GDP-bound NRAS wild-type protein to KD for KRAS, SPR): A (a compound having 10 or more and less than 20 is denoted as A)
CCOC[C@H]1C(=O)N[C@@H]([C@@H](C)CC)C(=O)N(C)CC(=O)N(C)[C@H]2C/C=C\CCN(C2=O)[C@@H](Cc2ccc(C)cc2)C(=O)N(C)CC(=O)N[C@@H](CCc2ccc(C(F)(F)F)c(OC)c2)C(=O)N2C[C@H](OCC)C[C@H]2C(=O)NC2(CC(C)(C)C2)C(=O)N(C)[C@@H](C2CCCC2)C(=O)N(C)[C@H](C(=O)N(CC)CC)CC(=O)N1C [PP2406]	7.67	A (a compound having 10 or more and less than 20 is denoted as A)	9.54	A (a compound having 10 or more and less than 20 is denoted as A)	–
CCC[C@H]1C(=O)N[C@@H](CC(C)C)C(=O)N(CC)CC(=O)N(C)[C@H]2C/C=C\CCN(C2=O)[C@@H](Cc2ccc(C)cc2)C(=O)N(C)CC(=O)N[C@@H](CCc2ccc(C(F)(F)F)c(OC)c2)C(=O)N2C[C@H](OCC)C[C@H]2C(=O)NC2(CC(C)(C)C2)C(=O)N(C)[C@@H](C2CCCC2)C(=O)N(C)[C@H](C(=O)N(C)C)CC(=O)N1C [PP2518]	7.09	A (a compound having 10 or more and less than 20 is denoted as A)	8.48	A (a compound having 10 or more and less than 20 is denoted as A)	–
CCO[C@@H]1C[C@H]2C(=O)NC3(CCCC3)C(=O)N(C)[C@@H](C3CCCC3)C(=O)N(C)[C@H](C(=O)N3CCOCC3)CC(=O)N(C)[C@@H](COC)C(=O)N[C@@H]([C@@H](C)CC)C(=O)NCC(=O)N(C)[C@H]3CCCCCN(C3=O)[C@@H](Cc3ccc(C(F)(F)F)cc3)C(=O)N(C)CC(=O)N[C@@H](CCc3cc(F)c(C(F)(F)F)c(F)c3)C(=O)N2C1 [PP0862]	7.09	B (a compound having 3 or more and less than 10 is denoted as B)	8.96	B (a compound having 3 or more and less than 10 is denoted as B)	–
CCCOC[C@H]1C(=O)N[C@@H]([C@@H](C)CC)C(=O)N(C)CC(=O)N(C)[C@H]2C/C=C\CCN(C2=O)[C@@H](Cc2ccc(C)cc2)C(=O)N(C)CC(=O)N[C@@H](CCc2ccc(C(F)(F)F)c(OC)c2)C(=O)N2C[C@@H](C)C[C@H]2C(=O)NC2(CC(C)(C)C2)C(=O)N(C)[C@@H](C2CCCC2)C(=O)N(C)[C@H](C(=O)N(C)C)CC(=O)N1C [PP2447]	8.07	B (a compound having 3 or more and less than 10 is denoted as B)	9.96	A (a compound having 10 or more and less than 20 is denoted as A)	–
CCO[C@@H]1C[C@H]2C(=O)NC3(CCOCC3)C(=O)N(C)[C@@H](C3CCCC3)C(=O)N(C)[C@H](C(=O)N(C)C)CC(=O)N(C)[C@@H](CC)C(=O)N[C@@H]([C@@H](C)CC)C(=O)N(C)CC(=O)N(C)[C@H]3C/C=C\CCN(C3=O)[C@@H](Cc3ccc(C(F)(F)F)cc3)C(=O)N(C)CC(=O)N[C@@H](CCc3cc(F)c(C(F)(F)F)c(F)c3)C(=O)N2C1 [PP1279]	7.14	–	–	–	HRAS/KRAS (ratio of KD value for HRAS to KD value for KRAS) ([2]; SPR, KD ratio class): A (a compound having 10 or more and less than 20 is denoted as A); pKd [3, 6]: 9.57; NRAS/KRAS (ratio of KD value for NRAS to KD value for KRAS) ([4]; SPR, KD ratio class): A (a compound having 10 or more and less than 20 is denoted as A)
CCOC[C@H]1C(=O)N[C@@H]([C@@H](C)CC)C(=O)N(C)CC(=O)N(C)[C@H]2C/C=C\CCN(C2=O)[C@@H](Cc2ccc(C(F)(F)F)cc2)C(=O)N(C)CC(=O)N[C@@H](CCc2ccc(C(F)(F)F)c(OC)c2)C(=O)N2C[C@H](OCC)C[C@H]2C(=O)NC2(CC(C)(C)C2)C(=O)N(C)[C@@H](CC2CCC2)C(=O)N(C)[C@H](C(=O)N(C)C)CC(=O)N1C [PP2765]	6.74	–	–	–	HRAS/KRAS (ratio of KD value with respect to GDP-bound HRAS wild-type protein to KD value with respect to KRAS) [2]: A (a compound having 10 or more and less than 20 is denoted as A); pKd [3, 5]: 9.15; NRAS/KRAS (ratio of KD value with respect to GDP-bound NRAS wild-type protein to KD value with respect to KRAS) [4]: A (a compound having 10 or more and less than 20 is denoted as A)
